What was measured:
barnyardgrass = assay: Test A pre-/postemergence herbicide test; assay type: in vivo, Echinochloa crus-galli
In short: (§1)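 Visual injury scores on a 0–100 scale (100 = complete control) taken about ten days post-treatment in greenhouse against untreated controls; dash means no result. Treatments: preemergence soil spray and postemergence spray to runoff on one- to two-leaf plants 2 to 10 cm tall, surfactant-containing formulation.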

morningglory = assay: Test A pre-/postemergence herbicide test; assay type: in vivo, Ipomoea spp.
In short: as §1

redroot pigweed = assay: Test A pre-/postemergence herbicide test; assay type: in vivo, Amaranthus retroflexus
In short: as §1

bermudagrass = assay: Test C pre-/postemergence herbicide test; assay type: in vivo, Cynodon dactylon; settings: for Bermudagrass plant response rating: 500 g ai/ha
In short: (§2)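 Visual ratings on a 0–100 scale (100 = complete control) made versus untreated controls after 12 to 14 greenhouse days. Test chemicals, formulated in surfactant-containing non-phytotoxic solvent, applied preemergence to planted seeds or postemergence to 1- to 4-leaf plants (2 to 18 cm).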

large crabgrass = assay: Test C pre-/postemergence herbicide test; assay type: in vivo, Digitaria sanguinalis
In short: as §2

velvetleaf = assay: Test C pre-/postemergence herbicide test; assay type: in vivo, Abutilon theophrasti
In short: as §2

chickweed = assay: Test C postemergence herbicide test; assay type: in vivo, Stellaria media; settings: for Chickweed plant response rating: 500 g ai/ha
Protocol: At the same time, plants selected from these crop and weed species and also winter barley (Hordeum vulgare L.), blackgrass (Alopecurus myosuroides Huds.), canarygrass (Phalaris minor Retz.), chickweed (Stellaria media (L.) Vill.), downy bromegrass (Bromus tectorum L.), green foxtail (Setaria viridis (L.) Beauv.), Italian ryegrass (Lolium multiflorum Lam.), wheat (Triticum aestivum L.), wild oat (Avenafatua L.) and windgrass (Apera spica-venti (L.) Beauv.) were treated with postemergence applications of some of the test chemicals formulated in the same manner. Plants ranged in height from 2 to 18 cm (1- to 4-leaf stage) for postemergence treatments. Plant species in the flooded paddy test consisted of rice (Oryza sativa), smallflower umbrella sedge (Cyperus difformis L.), ducksalad (Heteranthera limosa (Sw.) Willd.) and barnyardgrass (Echinochloa crus-galli (L.) Beauv.) grown to the 2-leaf stage for testing. Treated plants and controls were maintained in a greenhouse for 12 to 14 days, after which time all species were compared to controls and visually evaluated. Plant response ratings, summarized in Table C, are based on a scale of 0 to 100 where 0 is no effect and 100 is complete control. A dash (-) response means no test result.

eastern black nightshade = assay: Test C pre-/postemergence herbicide test; assay type: in vivo, Solanum ptycanthum; settings: preemergence
In short: as §2

ducksalad = assay: Test C flooded paddy test; assay type: in vivo, Heteranthera limosa
[1] = Postemergence, 500 g ai/ha, 0 to 100 scale, 0 no effect, 100 complete control
[2] = Postemergence, 2000 g ai/ha, 0 to 100 scale, 0 no effect, 100 complete control
[3] = Preemergence, 500 g ai/ha, visual rating, 0 to 100 scale (0 no effect, 100 complete control)
[4] = Preemergence, 2000 g ai/ha, 0 to 100 scale, 0 no effect, 100 complete control
[5] = Postemergence, 250 g ai/ha, scale 0 to 100, 0 no effect, 100 complete control
[6] = postemergence, 62 g ai/ha, scale 0 to 100
[7] = Postemergence, 500 g ai/ha, scale 0 to 100
[8] = postemergence, 125 g ai/ha, scale 0 to 100
[9] = 62 g ai/ha, preemergence, scale 0 to 100, 0 no effect, 100 complete control
[10] = 125 g ai/ha, scale 0 (no effect) to 100 (complete control), visual, 12 to 14 days, preemergence
[11] = 250 g ai/ha, scale 0-100, preemergence
[12] = 62 g ai/ha, preemergence, scale 0 to 100
[13] = 500 g ai/ha, scale 0 to 100 (0 no effect, 100 complete control), visual, 12 to 14 days, preemergence
[14] = postemergence, 31 g ai/ha, scale 0 to 100

Compound	Bermudagrass plant response rating (bermudagrass; Postemergence, scale 0 to 100)	Plant response rating, Bermudagrass (bermudagrass; [5])	Plant response rating, Bermudagrass (bermudagrass; [6])	Crabgrass, Large plant response rating (large crabgrass; [7])	Plant response rating, Crabgrass, Large (large crabgrass; [5])	Plant response rating, Crabgrass, Large (large crabgrass; [6])	Velvetleaf plant response rating (velvetleaf; [7])	Plant response rating, Velvetleaf (velvetleaf; [5])	Plant response rating, Velvetleaf (velvetleaf; [8])	Plant response rating, Velvetleaf (velvetleaf; [6])	Chickweed plant response rating (chickweed; Postemergence, scale 0 to 100)	Plant response rating, Chickweed (chickweed; [5])	Plant response rating, Chickweed (chickweed; [8])	Plant response rating, Chickweed (chickweed; [6])	Plant response rating, Bermudagrass (bermudagrass; [9])	Plant response rating, Bermudagrass (bermudagrass; [11])	Plant response rating, Bermudagrass (bermudagrass; [8])	Plant response rating, Crabgrass, Large (large crabgrass; [12])	Plant response rating, Crabgrass, Large (large crabgrass; [11])	Plant response rating, Nightshade (eastern black nightshade; 62 g ai/ha, scale 0 to 100)	other results
CCCCOC(=O)c1cccc(NC(=O)c2cc(C(C)(C)C)nn2CC)c1 [Compound 86]	100	30	10	40	10	10	85	80	60	40	100	100	100	100	–	–	–	–	–	–	Barnyardgrass plant response rating (barnyardgrass; [1]): 20; Plant response rating, Barnyardgrass (barnyardgrass; [2]): 20; Barnyardgrass plant response rating (barnyardgrass; [3]): 0; Barnyardgrass plant response rating (barnyardgrass; [4]): 0; Morningglory plant response rating (morningglory; [1]): 20; Plant response rating, Morningglory (morningglory; [2]): 35; Morningglory plant response rating (morningglory; [3]): 0; Morningglory plant response rating (morningglory; [4]): 15; Pigweed plant response rating (redroot pigweed; [1]): 55; Plant response rating, Pigweed (redroot pigweed; [2]): 95; Pigweed plant response rating (redroot pigweed; [3]): 0; Pigweed plant response rating (redroot pigweed; [4]): 55
CCn1nc(C(C)(C)C)cc1C(=O)Nc1cccc(OC(F)F)c1 [Compound 332]	70	50	5	70	50	30	90	85	60	40	100	100	100	60	80	100	10	75	100	20	Plant response rating, Bermudagrass (bermudagrass; [10]): 100; Bermudagrass plant response rating (bermudagrass; Preemergence, scale 0 to 100, 0 no effect, 100 complete control): 100; Plant response rating, Crabgrass, Large (large crabgrass; [10]): 100; Plant response rating, Crabgrass, Large (large crabgrass; [13]): 100; Plant response rating, Nightshade (eastern black nightshade; 125 g ai/ha, scale 0 (no effect) to 100 (complete control), visual, 12 to 14 days): 90; Plant response rating, Nightshade (eastern black nightshade; 250 g ai/ha, scale 0-100): 95; Plant response rating, Nightshade (eastern black nightshade; 500 g ai/ha, scale 0 to 100 (0 no effect, 100 complete control), visual, 12 to 14 days): 100; Plant response rating, Velvetleaf (velvetleaf; [12]): 40; Plant response rating, Velvetleaf (velvetleaf; [11]): 45; Plant response rating, Velvetleaf (velvetleaf; [13]): 70; Ducksalad plant response rating (ducksalad; 62 g ai/ha, scale 0 to 100): 20; Ducksalad plant response rating (ducksalad; 125 g ai/ha, scale 0 to 100 (0 no effect, 100 complete control)): 90; Ducksalad plant response rating (ducksalad; 250 g ai/ha, scale of 0 to 100, 0 is no effect, 100 is complete control): 95; Plant response rating, Ducksalad (ducksalad; 500 g ai/ha, visual rating after 12 to 14 days, scale 0 to 100 (0 no effect, 100 complete control)): 95
CCOC(=O)c1cccc(NC(=O)c2nn(C(C)(C)CC)nc2CC)c1 [Compound 375]	–	60	20	–	20	5	–	–	85	60	–	100	100	100	100	100	30	60	100	50	Plant response rating, Bermudagrass (bermudagrass; 31 g ai/ha, scale 0 to 100, 0 no effect, 100 complete control, last section of Table C (species set of preemergence test)): 95; Plant response rating (0 = no effect, 100 = complete control), Bermudagrass (bermudagrass; 125 g ai/ha, preemergence): 100; Plant response rating, Bermudagrass (bermudagrass; [14]): 5; Plant response rating (0 = no effect, 100 = complete control), Crabgrass, Large (large crabgrass; 125 g ai/ha, preemergence): 70; Plant response rating, Crabgrass, Large (large crabgrass; [8]): 20; Plant response rating (0 = no effect, 100 = complete control), Nightshade (eastern black nightshade; 125 g ai/ha): 50; Plant response rating, Nightshade (eastern black nightshade; 250 g ai/ha, scale 0-100): 55; Plant response rating, Velvetleaf (velvetleaf; [12]): 0; Plant response rating (0 = no effect, 100 = complete control), Velvetleaf (velvetleaf; 125 g ai/ha, preemergence): 30; Plant response rating, Velvetleaf (velvetleaf; [11]): 80; Plant response rating, Chickweed (chickweed; [14]): 100
